Data on 15 compounds can be found in patent publication US7777060B2, “Platinum analogs with bis-nitrile-containing ligands” (BioNumerik Pharmaceuticals, Inc., priority 2007, dated 2010).

Common to all, as to assay type: cell-based
For one assay, the system named is A2780/CP3. Kind of assay: Cytotoxicity IC50 in A2780/CP3 cell line, 1 hour drug exposure. The conditions noted are these: for IC50: 1 hour of exposure to the drug, average of repeat experiments, dash = IC50 >100 μM; for CP3 Rfact: resistance factor = IC50 in A2780/CP3 ÷ IC50 in A2780/WT. As for the experimental part:
(§1) All experiments are with 1 hour of exposure to the drug, IC50 in μM. The platinum compounds have been tested by the resistance factor in CP3 cell line (CP3 Rfact) and C25 cell line (C25 Rfact). The terms (CP3 Rfact) and (C25 Rfact) are determined utilizing the following equations, wherein WT stands for wild-type. CP3 Rfact=IC50 in A2780/CP3÷IC50 in A2780/WT C25 Rfact=IC50 in A2780/C25÷IC50 in A2780/WT
(§2) In addition, Compounds with “ - - - ” in the IC50 column indicate the IC50s are >100 μM.

The next assay concerns A2780/C25. Kind of assay: Cytotoxicity IC50 in A2780/C25 cell line, 1 hour drug exposure. The note with it: for IC50: 1 hour of exposure to the drug, average of repeat experiments; for C25 Rfact: resistance factor = IC50 in A2780/C25 ÷ IC50 in A2780/WT. As for the experimental part:
as §1, §2

In a further assay the test system is A2780/WT. Kind of assay: Cytotoxicity IC50 in A2780/WT cell line, 1 hour drug exposure. The note with it: 1 hour of exposure to the drug; average of repeat experiments. As for the experimental part:
as §1, §2

For the compound `N#CCc1ccc2c(c1)OCO2.N#CCc1ccc2c(c1)OCO2.[Cl][Pt@SP1][Cl]` [BNP3016, Cis-bis(3,4-(methylenedioxy)phenylacetonitrile)dichloroplatinum (II)], in the assay on A2780/CP3, the half-maximal inhibitory concentration (IC50) came to 75.6 µM and the “CP3 Rfact” value amounted to 1.21. Further, in the assay with A2780/C25, the IC50 was 66.5 µM and the “C25 Rfact” value is listed as 1.07. This compound registered a concentration for half-maximal inhibition (IC50) with A2780/WT of 62.4 µM.
For the compound `COC(CCC#N)c1ccccc1.COC(CCC#N)c1ccccc1.[Cl][Pt@SP1][Cl]` (stereo not drawn) [BNP3017, Cis-bis(4-methoxy-4-phenylbutyronitrile)dichloroplatinum (II)], the IC50 was determined as 18.8 µM in the assay on A2780/CP3, 18.1 µM with A2780/C25 and 14 µM with A2780/WT. Also, in the assay on A2780/CP3, the “CP3 Rfact” value came out at 1.34. In addition, the “C25 Rfact” value with A2780/C25 is listed as 1.29.
Turning to `N#CCCC1CCCCC1=O.N#CCCC1CCCCC1=O.[Cl][Pt@SP1][Cl]` (stereo not drawn) [BNP3020, Cis-bis[3-(2-oxo-cyclohexyl)-propionitrile]dichloroplatinum (II)], in the assay on A2780/CP3, the half-maximal inhibitory concentration (IC50) turned out to be 84.3 µM and the “CP3 Rfact” value stood at 1.63. In addition, in the assay on A2780/C25, 61.6 µM corresponded to half-maximal inhibition (IC50) and the “C25 Rfact” value came to 1.19. Further, the IC50 with A2780/WT was 51.6 µM.
In the case of `[Cl][Pt-2]([Cl])([N+]#CC1CCC1)[N+]#CC1CCC1` [BNP3021, Cis-bis-(cyclobutanecarbonitrile)dichloroplatinum (II)], the half-inhibitory concentration (IC50) in the assay on A2780/CP3 stood at 41.3 µM; in the assay with A2780/C25, 29.2 µM; in the assay on A2780/WT, 13.9 µM. Further, the “CP3 Rfact” value in the assay on A2780/CP3 came to 2.97. Further, the “C25 Rfact” value in the assay with A2780/C25 is listed as 2.10.
As to `CCCCOCCC#N.CCCCOCCC#N.[Cl][Pt@SP1][Cl]` [BNP3022, Cis-bis(3-butoxypropanenitrile)dichloroplatinum (II)], the IC50 in the assay on A2780/CP3 was over 100 µM; in the assay with A2780/C25, 65 µM; with A2780/WT it was 73.8 µM. In addition, the “C25 Rfact” value in the assay on A2780/C25 was 0.88.
Turning to `Cc1ccccc1CC#[N+][Pt-2]([Cl])([Cl])[N+]#CCc1ccccc1C` [BNP3024, Cis-bis-(o-tolylacetonitrile)dichloroplatinum (II)], the IC50 in the assay on A2780/CP3 was determined as 18.6 µM; in the assay with A2780/C25, 18.7 µM; in the assay on A2780/WT, 13.9 µM. Moreover, the “CP3 Rfact” value with A2780/CP3 came out at 1.34. Further, the “C25 Rfact” value in the assay with A2780/C25 is recorded as 1.34.
For the compound `Cc1cccc(CC#[N+][Pt-2]([Cl])([Cl])[N+]#CCc2cccc(C)c2)c1` [BNP3026, Cis-bis(m-tolylacetonitrile)dichloroplatinum (II)], the values for the IC50 in the assay with A2780/CP3, in the assay with A2780/C25 and with A2780/WT were 28.5 µM, 24 µM and 21.6 µM, respectively. For the same compound, the “CP3 Rfact” value in the assay with A2780/CP3 worked out at 1.32. The “C25 Rfact” value in the assay on A2780/C25 is recorded as 1.11.
The like results for `N#CCCCc1ccccc1.N#CCCCc1ccccc1.[Cl][Pt@SP1][Cl]` [BNP3029/c, Cis-bis-(4-phenylbutyronitrile)dichloroplatinum (II)] were, in that order, 6.88 µM, 5.45 µM, 4.4 µM, 1.56 and 1.24.
For `N#CCCCc1ccccc1.N#CCCCc1ccccc1.[Cl][Pt@SP1][Cl]` [BNP3029/t, Trans-bis-(4-phenylbutyronitrile)dichloroplatinum (II)], in the assay with A2780/CP3, the IC50 came out at 19.2 µM and the “CP3 Rfact” value was 1.19. Moreover, in the assay with A2780/C25, the IC50 was 17.7 µM and the “C25 Rfact” value is 1.09. Also, inhibition in the assay on A2780/WT was half-maximal at 16.2 µM (IC50).
For `N#CC1Cc2ccccc21.N#CC1Cc2ccccc21.[Cl][Pt@SP1][Cl]` (stereo not drawn) [BNP3030, Cis-bis(bicyclo[4.2.0]octa-1(6),2,4-triene-7-carbonitrile)dichloroplatinum (II)] the same measures were 61.9 µM, 1.20, 58.9 µM, 1.15 and 51.4 µM.
`N#CCc1ccccc1C(F)(F)F.N#CCc1ccccc1C(F)(F)F.[Cl][Pt@SP1][Cl]` [BNP3037/t, Trans-bis-[2-(trifluoromethyl)-phenylacetonitrile]dichloroplatinum]: the IC50 in the assay with A2780/CP3 was over 100 µM; in the assay with A2780/C25, 68.7 µM; in the assay on A2780/WT it was 87.1 µM. Also, the “C25 Rfact” value with A2780/C25 is 0.79.
For the compound “Cis-bis(cyclopropaneacetonitrile)dichloroplatinum (II) [BNP3014/c]”, the half-maximal inhibitory concentration (IC50) in the assay with A2780/CP3 came to 55.7 µM; with A2780/C25, 45.4 µM; in the assay with A2780/WT, 23.3 µM. The “CP3 Rfact” value in the assay on A2780/CP3 came out at 2.39. Besides, the “C25 Rfact” value with A2780/C25 was 1.94.
As for “Cis-bis-[4-(trifluoromethoxy)-phenylacetonitrile]dichloroplatinum (II) [BNP3031]”, in the assay with A2780/CP3, the IC50 came to 35.9 µM and the “CP3 Rfact” value turned out to be 1.95. For the same compound, in the assay on A2780/C25, the IC50 was 23.2 µM and the “C25 Rfact” value came to 1.26. This compound also displayed a half-maximal inhibitory concentration (IC50) with A2780/WT of 18.4 µM.
For “Trans-bis(2,6-difluoro-3-methylphenylacetonitrile)dichloroplatinum (II) [BNP3036/t]” the same measures were 54.1 µM, 2.28, 35.2 µM, 1.49 and 23.7 µM.
As to “Trans-bis(cyclopropaneacetonitrile)dichloroplatinum (II) [BNP3014/t]”, the 50% inhibitory concentration (IC50) in the assay on A2780/CP3 was over 100 µM; in the assay with A2780/C25, 92 µM; in the assay on A2780/WT, 68.1 µM. For the same compound, the “C25 Rfact” value in the assay with A2780/C25 was 1.35.
